{"source": "patent US20260015436A1", "about": "“ANTIBODIES FOR CHELATED RADIONUCLIDES” (Hoffmann-La Roche Inc., priority 2018, published 2026)", "key": {"BxPC3 tumors": {"test_system": "BxPC3 tumors", "assay": "Protocol 146: ^212Pb-DOTAM biodistribution and absorbed dose estimation after PRIT", "assay_type": "in vivo, SCID mice", "conditions": "for Mean absorbed dose, RBE = 1 / Mean absorbed dose, RBE = 5: 20 μCi pretargeted ^212Pb-DOTAM, tumor-bearing SCID", "protocol": "Protocol 146 was designed to provide in vivo ^212Pb-DOTAM distribution data after PRIT for estimations of the absorbed radioactive dose to tumor and normal tissues, in SCID mice carrying s.c. BxPC3 tumors. The quenching of ^212Pb-DOTAM was performed using Ca (see example 34).\nPretargeting was performed by injection of CEA-DOTAM BsAb, followed 7 days later by the CA. After 24 hours, the ^212Pb-DOTAM was administered. Groups of mice were sacrificed at multiple time points from 5 minutes to 48 hours after the radioactive injection, and blood and organs harvested for radioactive measurement. Excrements were sampled at selected time points by use of metabolic cages to assess the excretion rate of the radioactive compound. Absorbed doses were finally calculated through established methods using the resulting time-activity curves.\nSolid xenografts were established by s.c. injection of BxPC3 cells into SCID mice (Envigo) aged 8 weeks.\nMice in group E and F were individually housed (i.e. one mouse per cage) in grilled-floor metabolic cages. Urine and feces were collected from each cage 2, 6, and 24 hours after the radioactive injection, and the individual samples subsequently measured for radioactivity. Mice in group F were transferred to a regular cage 24 hours p.i.\nBlood/serum was collected from all mice through retro-orbital bleeding before termination. After euthanasia, the following additional organs and tissues were harvested for radioactivity measurement and calculation of % ID/g: bladder, uterus, small intestine, colon, spleen, pancreas, kidneys, stomach, liver, lung, heart, brain, femoral bone, skin, muscle, abdominal fat, tail, and tumor.\nAbsorbed doses were calculated following the formalism outlined in Pamphlet No. 21 from the Medical Internal Radiation Dose (MIRD) Committee (Bolch W E, Eckerman K F, Sgouros G, and Thomas S R. J Nucl Med 2009; 50:477-484).\nFormally, the absorbed dose D(rT) in a target tissue or region rT is calculated as the time-integral of the activity A(rS, t) multiplied by the absorbed dose rate per unit activity S(rT ←rS), summed over all source regions rS. Given that the vast majority of energy released by the ^212Pb decay chain comes from alpha radiation and furthermore by the much higher biological effectiveness of alpha radiation (as characterized by the relative biological effectiveness, RBE) two approximations were made: • 1. the energy is absorbed locally due to the short range of the alpha particles, which means that only the term S(rT←rT) is considered, and • 2. the contribution from beta and gamma radiation is neglected.\nWith Δα being the energy released by alpha decays, or rather the sum of the mean energies released by alpha decays in the decay chain of ^212Pb, here expressed in units J/(μCi·h), the absorbed dose in a target tissue or region rT is calculated by the formula: […]\nThe calculations are based on the composite (average) decay-corrected radioactive concentration at time t, expressed as [% ID/g]t. In a first step, these are transformed into radioactive concentrations as μCi per kg tissue weight for the target tissue rT:\nA0[μCi]is the injected activity and λ is the exponential decay rate for ^212Pb, 0.0651 h^−1 (corresponding to the 10.6-hour half-life).\nIn a second step, the radioactive concentration was integrated over time for each tissue. This was achieved using the “Linear Log Trapezoidal calculation method” in the pharmacokinetic software Phoenix WinNonlin 6.4 (Certara USA, Inc., 100 Overlook Center, Suite 101, Princeton, NJ 08540 USA). The model type “Plasma” was used with uniform weighting.\nIn the final step, absorbed doses were calculated by multiplying the time integrals of the radioactive concentration by the energy release Δα=170·10^−6J/(μCi·h)."}, "WSU-DLCL2 tumors": {"test_system": "WSU-DLCL2 tumors", "assay": "Protocol 162: CD20-PRIT efficacy", "assay_type": "in vivo, SCID mice", "conditions": "multiple injections of 20 μCi (PRIT); result in words", "protocol": "The aim of this study was to show proof-of-concept of the treatment regimen developed for CEA-PRIT directed against an alternative target: cluster of differentiation 20 (CD20). The therapeutic efficacy was evaluated after 3 cycles of CD20-PRIT in mice bearing subcutaneous WSU-DLCL2 tumors. Comparisons were also made with: 1-step CD20-RIT, using BsAbs that were pre-incubated with ^212Pb-DOTAM before injection; with rituximab, a type I monoclonal antibody directed against CD20 and a reference in treatment of CD20+ diseases; and with GA101, a type II monoclonal antibody also directed against CD20.\nAnimals were treated according to the experimental schedule illustrated in FIG. 59. Solid WSU-DLCL2 xenografts were established in SCID mice aged 8 weeks on study day 0 by subcutaneous injection of 1.5×10^5 cells into the right flank. […]\nMice in groups H, I, and L were sacrificed and necropsied for biodistribution purposes 24 hours after their first and only injection of ^212Pb-DOTAM or ^212Pb-DOTAM-BsAb; groups J and K were sacrificed and necropsied 24 hours after their second and third ^212Pb-DOTAM injection, respectively. […] Collected samples were weighed and then measured for radioactivity using a 2470 WIZARD^2 automatic gamma counter (PerkinElmer), and the percent injected dose per gram of tissue (% ID/g) subsequently calculated, including corrections for decay and background. […]"}}, "data": [{"molecule": "NC(=O)CN1CCN(CC(N)=O)CCN(CC(N)=O)CCN(CC(N)=O)CC1.[212Pb+2]", "note": "[^212Pb-DOTAM]", "values": [{"measurement": "accumulation of radioactivity in tumor", "setting": "BxPC3 tumors; 5 minutes after injection, pretargeted by CEA-DOTAM BsAb", "value": 17, "unit": "% ID/g"}, {"measurement": "Mean absorbed dose, RBE = 1", "setting": "BxPC3 tumors; Blood", "value": 0.72, "unit": "Gy"}, {"measurement": "Mean absorbed dose, RBE = 5", "setting": "BxPC3 tumors; Blood", "value": 3.60, "unit": "Gy"}, {"measurement": "Mean absorbed dose, RBE = 1", "setting": "BxPC3 tumors; Brain", "value": 0.04, "unit": "Gy"}, {"measurement": "Mean absorbed dose, RBE = 5", "setting": "BxPC3 tumors; Brain", "value": 0.19, "unit": "Gy"}, {"measurement": "Mean absorbed dose, RBE = 1", "setting": "BxPC3 tumors; Colon", "value": 0.43, "unit": "Gy"}, {"measurement": "Mean absorbed dose, RBE = 1", "setting": "BxPC3 tumors; Femoral bone", "value": 0.27, "unit": "Gy"}, {"measurement": "Mean absorbed dose, RBE = 1", "setting": "BxPC3 tumors; Heart", "value": 0.33, "unit": "Gy"}, {"measurement": "Mean absorbed dose, RBE = 1", "setting": "BxPC3 tumors; Liver", "value": 0.22, "unit": "Gy"}, {"measurement": "Mean absorbed dose, RBE = 1", "setting": "BxPC3 tumors; Muscle", "value": 0.29, "unit": "Gy"}, {"measurement": "Mean absorbed dose, RBE = 1", "setting": "BxPC3 tumors; Pancreas", "value": 0.36, "unit": "Gy"}, {"measurement": "Mean absorbed dose, RBE = 5", "setting": "BxPC3 tumors; Pancreas", "value": 1.80, "unit": "Gy"}, {"measurement": "Mean absorbed dose, RBE = 5", "setting": "BxPC3 tumors; Serum", "value": 8.20, "unit": "Gy"}, {"measurement": "Mean absorbed dose, RBE = 1", "setting": "BxPC3 tumors; Skin", "value": 0.47, "unit": "Gy"}, {"measurement": "Mean absorbed dose, RBE = 1", "setting": "BxPC3 tumors; Small intestine", "value": 0.22, "unit": "Gy"}, {"measurement": "Mean absorbed dose, RBE = 1", "setting": "BxPC3 tumors; Spleen", "value": 0.27, "unit": "Gy"}, {"measurement": "Mean absorbed dose, RBE = 1", "setting": "BxPC3 tumors; Stomach", "value": 0.24, "unit": "Gy"}, {"measurement": "Mean absorbed dose, RBE = 5", "setting": "BxPC3 tumors; Stomach", "value": 1.20, "unit": "Gy"}, {"measurement": "Mean absorbed dose, RBE = 1", "setting": "BxPC3 tumors; Tail", "value": 0.54, "unit": "Gy"}, {"measurement": "Mean absorbed dose, RBE = 1", "setting": "BxPC3 tumors; Uterus", "value": 0.61, "unit": "Gy"}, {"measurement": "BW development", "setting": "WSU-DLCL2 tumors", "value": "well tolerated"}]}]}
